The values below are quoted from earlier work in patent US20050129719A1, “Concentrated emulsion formulation for silatecan” (priority 2003, published 2005).

In the case of `CC[C@@]1(O)C(=O)OCc2c1cc1n(c2=O)Cc2c-1nc1ccc(O)cc1c2[Si](C)(C)C(C)(C)C` [Silatecan, 7-t-butyldimethylsilyl-10-hydroxycamptothecin], the water-solubility entry is “extremely low water-solubility”.
